CN1c2ccccc2C(=O)N2CCc3c([nH]c4ccccc34)[C@H]21
solubility (mole fraction)
Settings | 283.2 K | 288.2 K | 293.2 K | 298.2 K | 303.2 K | 313.2 K | 323.2 K
in acetone | 0.000216 | – | 0.000303 | – | 0.00038 | 0.000513 | 0.000676
in chloroform | 0.000683 | – | 0.000876 | – | 0.00105 | 0.00135 | 0.00183
in cyclohexane | 1.68e-06 | – | 2.81e-06 | – | 4.49e-06 | 6.47e-06 | 9.36e-06
in dichloromethane | 0.000334 | 0.00037 | 0.000417 | 0.00048 | 0.000571 | – | –
in diethyl ether | 4.06e-05 | 5.16e-05 | 6.93e-05 | 7.51e-05 | 9.09e-05 | – | –
in ethanol | 6.12e-05 | – | 8.02e-05 | – | 0.000116 | 0.000173 | 0.000257
in ethyl acetate | 0.000135 | – | 0.000165 | – | 0.000255 | 0.000321 | 0.000412
in isopropanol | 7e-05 | – | 8.69e-05 | – | 0.000119 | 0.000181 | 0.000287
in methanol | 3.52e-05 | – | 5.19e-05 | – | 7.24e-05 | 0.00011 | 0.000176
in n-butanol | 0.000112 | – | 0.000139 | – | 0.000216 | 0.000317 | 0.000458
in n-hexane | 1.05e-06 | – | 1.66e-06 | – | 2.61e-06 | 4.37e-06 | 5.84e-06
in n-pentane | 1.59e-06 | 2.2e-06 | 2.92e-06 | 3.79e-06 | 4.7e-06 | – | –

From BigSolDB 2.1
